Data set [1] is described as follows: Nephelometric solubility. In kind it is physicochemical. The conditions noted are these: aqueous buffer, kinetic from dmso stock; PBS buffer, nephelometry. The procedure: In addition to the degradation and determination of the effects on AML cancer cells, we also determined some physicochemical parameters to assess whether the compounds are suitable for further in vivo studies. Nephelometric measurements were performed to determine the water solubility of some compounds. […] The nephelometric technique has been previously described as a high-throughput method for the solubility determination of compounds in the solvent of interest. This technique measures the intensity of scattered light when visible light passes through a suspension of the tested compound. Relative turbidity is an indication of the insolubility of compounds.
First, equidistant and logarithmic pre-dilutions were prepared in a 96-well plate with round bottoms, using 25 mM stock solutions of compounds MA68 and MA191 in DMSO. Then, 5 μL of each pre-dilution was added to 245 μL of PBS buffer in a 96-well plate with straight bottoms. Quadruplets were prepared for the blank (DMSO + PBS), and final concentrations (one plate per compound) were tested. The final concentrations measured started from 500 μM to 0.78125 μM. A NEPHELOstarplus (BMG LABTECH GmbH, Ortenberg, Germany) was used to measure the solubility, and omega-data analysis software (version 3.42 R5) was used to analyze the results.

In data set [2] the target is T1, CAMK1D (Homo sapiens, UniProt Q8IU85).
T1 construct: Full-length kinase ORF (Promega, Madison, WI, USA) cloned in frame with a NanoLuc-vector was transfected into HEK293T cells; host or cells: HEK293T
As to the kind of experiment: NanoBRET CELLinib128. In kind it is binding. The following applies: 100% no effect, 0% complete tracer displacement, read-out: Tracer bound. On the technique in general: Bioluminescence resonance energy transfer reports proximity on the nanometre scale.

In data set [3] the target is T2, CAMK1G (Homo sapiens, UniProt Q96NX5).
T2 construct: Full-length kinase ORF (Promega, Madison, WI, USA) cloned in frame with a NanoLuc-vector was transfected into HEK293T cells; host or cells: HEK293T
As to the kind of experiment: NanoBRET CELLinib128. In kind it is binding. The following applies: 100% no effect, 0% complete tracer displacement, read-out: Tracer bound.

The target of data set [4] is T3, EPHA5 (Homo sapiens, UniProt P54756).
T3 construct: Full-length kinase ORF (Promega, Madison, WI, USA) cloned in frame with a NanoLuc-vector was transfected into HEK293T cells; host or cells: HEK293T
The data set is described as follows: NanoBRET CELLinib128. In kind it is binding. The conditions noted are these: 1 µM; 100% no effect, 0% complete tracer displacement.

The target in data set [5] is T4, FYN (Homo sapiens, UniProt P06241).
T4 construct: Full-length kinase ORF (Promega, Madison, WI, USA) cloned in frame with a NanoLuc-vector was transfected into HEK293T cells; host or cells: HEK293T
The data set is described as follows: NanoBRET CELLinib128. The data set is classed as binding. The following applies: 100% no effect, 0% complete tracer displacement, read-out: Tracer bound.

Data set [6] concerns the target T5, HCK (Homo sapiens, UniProt P08631).
T5 construct: Full-length kinase ORF (Promega, Madison, WI, USA) cloned in frame with a NanoLuc-vector was transfected into HEK293T cells; host or cells: HEK293T
The data set is described as follows: NanoBRET CELLinib128. The data set is classed as binding. The conditions noted are these: 100% no effect, 0% complete tracer displacement, read-out: Tracer bound.

For data set [7], the target named is DDR1 (Homo sapiens, UniProt Q08345). As to the kind of experiment: NanoBRET CELLinib128. The following applies: read-out: Tracer bound.
For data set [8], the target named is EPHB1 (Homo sapiens, UniProt P54762). As to the kind of experiment: NanoBRET CELLinib128. The following applies: read-out: Tracer bound.
In data set [9] the target is EPHB4 (Homo sapiens, UniProt P54760). As to the kind of experiment: NanoBRET CELLinib128. The conditions noted are these: read-out: Tracer bound.
Data set [10] addresses EPHB6 (Homo sapiens, UniProt O15197). As to the kind of experiment: NanoBRET CELLinib128. The following applies: read-out: Tracer bound.
The target in data set [11] is FGR (Homo sapiens, UniProt P09769). The data set is described as follows: NanoBRET CELLinib128. The following applies: read-out: Tracer bound.
Data set [12] concerns the target GSK3B (Homo sapiens, UniProt P49841). As to the kind of experiment: NanoBRET CELLinib128. The following applies: read-out: Tracer bound.
In data set [13] the target is IGF1R (Homo sapiens, UniProt P08069). The data set is described as follows: NanoBRET CELLinib128. The conditions noted are these: read-out: Tracer bound.
The target in data set [14] is IRAK1 (Homo sapiens, UniProt P51617). The data set is described as follows: NanoBRET CELLinib128. The following applies: read-out: Tracer bound.
Data set [15] addresses MAPK11 (Homo sapiens, UniProt Q15759). The data set is described as follows: NanoBRET CELLinib128. The conditions noted are these: read-out: Tracer bound.
Data set [16] has as its system MV4-11 cells. The data set is described as follows: Apoptosis by flow cytometry (annexin-V/propidium iodine). The data set is classed as cell-based, human. The conditions noted are these: 24 h. Here is the method: To further assess the biological relevance of these findings, we treated MV4-11 cells with the new PROTACs, included MA49 as control, and analyzed them for early (annexin-V positive) and late apoptosis (annexin-V and propidium iodine positive) by flow cytometry. Cells in late apoptosis are more severely damaged than cells in early apoptosis. […] After 72 h, all degraders evoked equal levels of apoptosis (Figure 4c). We additionally tested these degraders in MOLM-13 cells which carry FLT3-ITD and FLT3 from a patient with AML after initial myelodysplastic syndrome. These were hardly affected by the degraders after 24 h (Figure 4d).
Figure 4 Biological and biochemical characterization of the FLT3 PROTACs. (a) MV4-11 cells were incubated for 24 h with 50 nM of the indicated compounds. Immunoblotting was performed for the indicated proteins and their phosphorylation (p-) or cleavage (cl.; indicated by arrows); β-actin was used to ensure equal sample loading. (b) MV4-11 cells were treated with the indicated agents and analyzed for early and late apoptosis by flow cytometry. (c) Same as in (b) but treatment for 72 h. (d) MOLM-13 cells were treated with the indicated agents and analyzed for early and late apoptosis by flow cytometry. […] Immunoblots show the expression of the indicated proteins and their phosphorylation (p-); β-actin was used to ensure equal sample loading. […]

SMILES strings stand for the structures. ≈ marks a conversion by molar mass, not a printed value.

We go through 3 molecules from PMC13210772, “Dual FLT3/MAPK14 Proteolysis-Targeting Chimera (PROTAC) Induces Potent Acute Myeloid Leukemia Cell Death” (Pharmaceuticals, 2026).

As usually defined, the solubility is the concentration that dissolves in the medium under given conditions. A low value points to little dissolved substance.

T5 sequence (P08631 whole entry): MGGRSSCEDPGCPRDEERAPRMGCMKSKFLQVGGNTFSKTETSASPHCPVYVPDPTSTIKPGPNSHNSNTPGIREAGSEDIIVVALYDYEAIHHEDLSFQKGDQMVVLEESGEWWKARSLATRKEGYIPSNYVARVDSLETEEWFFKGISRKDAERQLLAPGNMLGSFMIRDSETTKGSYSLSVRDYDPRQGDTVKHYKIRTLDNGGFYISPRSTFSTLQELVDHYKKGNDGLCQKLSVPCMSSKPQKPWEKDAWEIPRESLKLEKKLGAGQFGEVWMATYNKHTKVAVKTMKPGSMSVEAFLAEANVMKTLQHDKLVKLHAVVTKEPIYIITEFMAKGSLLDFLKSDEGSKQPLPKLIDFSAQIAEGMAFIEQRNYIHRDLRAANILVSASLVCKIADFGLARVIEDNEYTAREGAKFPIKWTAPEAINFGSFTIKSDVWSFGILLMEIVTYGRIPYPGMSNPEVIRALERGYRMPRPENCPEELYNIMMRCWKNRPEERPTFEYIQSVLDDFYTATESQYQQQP
Chain of FGR (P09769 whole entry): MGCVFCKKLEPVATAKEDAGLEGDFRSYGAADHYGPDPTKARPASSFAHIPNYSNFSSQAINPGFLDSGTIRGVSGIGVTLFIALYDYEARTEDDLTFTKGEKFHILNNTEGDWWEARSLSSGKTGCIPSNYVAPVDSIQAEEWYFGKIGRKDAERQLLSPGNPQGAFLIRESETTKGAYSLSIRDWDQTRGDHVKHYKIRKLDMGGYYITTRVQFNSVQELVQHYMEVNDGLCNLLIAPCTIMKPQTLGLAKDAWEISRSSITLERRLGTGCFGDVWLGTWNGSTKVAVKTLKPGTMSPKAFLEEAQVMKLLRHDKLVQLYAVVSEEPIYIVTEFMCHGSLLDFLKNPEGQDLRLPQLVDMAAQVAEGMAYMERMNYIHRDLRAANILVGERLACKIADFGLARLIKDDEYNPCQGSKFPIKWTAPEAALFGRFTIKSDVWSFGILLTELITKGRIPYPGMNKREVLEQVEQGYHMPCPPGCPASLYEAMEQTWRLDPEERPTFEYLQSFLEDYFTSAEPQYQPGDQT
T3 sequence (P54756 25-1037): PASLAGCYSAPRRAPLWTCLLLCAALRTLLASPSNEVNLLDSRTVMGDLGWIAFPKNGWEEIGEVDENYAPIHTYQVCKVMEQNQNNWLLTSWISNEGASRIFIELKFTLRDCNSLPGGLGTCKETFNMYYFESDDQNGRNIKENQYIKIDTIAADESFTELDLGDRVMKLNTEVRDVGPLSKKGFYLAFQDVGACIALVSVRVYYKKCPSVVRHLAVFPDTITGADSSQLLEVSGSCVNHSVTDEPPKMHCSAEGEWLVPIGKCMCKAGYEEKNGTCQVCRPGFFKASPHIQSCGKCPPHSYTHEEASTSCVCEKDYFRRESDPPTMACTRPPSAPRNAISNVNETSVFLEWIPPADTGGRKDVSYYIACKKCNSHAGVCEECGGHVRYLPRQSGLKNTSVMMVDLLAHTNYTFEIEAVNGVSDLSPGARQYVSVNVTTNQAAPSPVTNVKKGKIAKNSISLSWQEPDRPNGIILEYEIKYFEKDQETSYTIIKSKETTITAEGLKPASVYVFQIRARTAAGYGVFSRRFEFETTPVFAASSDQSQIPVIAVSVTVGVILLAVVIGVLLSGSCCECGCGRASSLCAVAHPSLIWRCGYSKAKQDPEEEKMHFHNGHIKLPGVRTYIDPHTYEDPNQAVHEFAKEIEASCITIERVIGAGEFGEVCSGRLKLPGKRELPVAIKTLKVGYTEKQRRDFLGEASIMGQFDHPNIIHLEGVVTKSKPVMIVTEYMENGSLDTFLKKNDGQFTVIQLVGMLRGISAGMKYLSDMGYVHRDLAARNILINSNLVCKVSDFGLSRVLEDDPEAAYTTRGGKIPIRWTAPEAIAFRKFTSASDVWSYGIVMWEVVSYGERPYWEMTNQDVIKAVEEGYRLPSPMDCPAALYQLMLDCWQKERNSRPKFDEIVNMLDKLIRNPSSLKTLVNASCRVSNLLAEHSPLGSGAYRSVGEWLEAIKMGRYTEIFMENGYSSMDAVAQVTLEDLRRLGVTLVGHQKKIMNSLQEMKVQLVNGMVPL
Chain of GSK3B (P49841 whole entry): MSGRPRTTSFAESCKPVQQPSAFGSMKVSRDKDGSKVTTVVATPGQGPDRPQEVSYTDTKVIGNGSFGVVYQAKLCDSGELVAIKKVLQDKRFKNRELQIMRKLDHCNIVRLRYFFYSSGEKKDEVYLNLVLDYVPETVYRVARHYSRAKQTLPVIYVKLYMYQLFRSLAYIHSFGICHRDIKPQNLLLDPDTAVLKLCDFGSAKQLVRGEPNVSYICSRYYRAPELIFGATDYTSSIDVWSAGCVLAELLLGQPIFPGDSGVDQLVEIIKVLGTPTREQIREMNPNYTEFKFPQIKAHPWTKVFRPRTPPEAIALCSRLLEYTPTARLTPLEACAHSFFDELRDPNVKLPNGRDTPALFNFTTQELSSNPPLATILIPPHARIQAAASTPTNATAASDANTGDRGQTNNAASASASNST
T1 sequence (Q8IU85 whole entry): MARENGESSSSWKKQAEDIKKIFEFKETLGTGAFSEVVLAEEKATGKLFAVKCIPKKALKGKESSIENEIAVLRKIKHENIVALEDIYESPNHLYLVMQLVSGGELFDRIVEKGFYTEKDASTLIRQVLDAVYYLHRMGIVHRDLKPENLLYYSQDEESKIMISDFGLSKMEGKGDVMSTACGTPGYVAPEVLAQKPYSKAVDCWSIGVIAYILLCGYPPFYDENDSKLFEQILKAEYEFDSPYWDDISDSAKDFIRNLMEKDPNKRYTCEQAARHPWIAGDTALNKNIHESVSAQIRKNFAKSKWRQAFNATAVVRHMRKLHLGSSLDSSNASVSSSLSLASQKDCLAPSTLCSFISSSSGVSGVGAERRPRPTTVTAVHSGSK
Chain of EPHB4 (P54760 16-987): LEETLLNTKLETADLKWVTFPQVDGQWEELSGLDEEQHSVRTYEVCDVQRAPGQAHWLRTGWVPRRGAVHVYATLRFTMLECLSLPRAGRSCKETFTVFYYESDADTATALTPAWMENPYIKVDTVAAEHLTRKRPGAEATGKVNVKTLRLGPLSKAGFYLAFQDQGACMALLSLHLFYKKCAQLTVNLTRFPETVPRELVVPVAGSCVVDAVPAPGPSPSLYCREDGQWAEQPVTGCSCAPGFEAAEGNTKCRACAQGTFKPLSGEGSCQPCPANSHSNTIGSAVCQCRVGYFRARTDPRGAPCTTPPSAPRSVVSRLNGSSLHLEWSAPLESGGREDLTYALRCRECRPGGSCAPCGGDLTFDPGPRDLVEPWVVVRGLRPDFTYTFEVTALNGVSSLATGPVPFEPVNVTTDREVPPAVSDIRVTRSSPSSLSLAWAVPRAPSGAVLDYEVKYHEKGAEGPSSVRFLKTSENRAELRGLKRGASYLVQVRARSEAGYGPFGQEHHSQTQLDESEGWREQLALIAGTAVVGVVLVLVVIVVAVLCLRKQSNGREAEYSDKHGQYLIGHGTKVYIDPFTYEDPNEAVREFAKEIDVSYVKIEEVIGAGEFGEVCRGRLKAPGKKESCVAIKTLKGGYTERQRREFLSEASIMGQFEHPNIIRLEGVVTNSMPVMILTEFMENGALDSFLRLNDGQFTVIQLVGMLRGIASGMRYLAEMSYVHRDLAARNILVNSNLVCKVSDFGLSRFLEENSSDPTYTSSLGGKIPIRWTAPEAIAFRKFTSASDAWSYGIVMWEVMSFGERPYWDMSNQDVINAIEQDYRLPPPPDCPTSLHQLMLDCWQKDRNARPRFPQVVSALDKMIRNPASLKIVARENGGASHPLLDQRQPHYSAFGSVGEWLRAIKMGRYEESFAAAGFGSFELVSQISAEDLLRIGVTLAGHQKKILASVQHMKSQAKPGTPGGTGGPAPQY
Chain of EPHB6 (O15197 32-1021): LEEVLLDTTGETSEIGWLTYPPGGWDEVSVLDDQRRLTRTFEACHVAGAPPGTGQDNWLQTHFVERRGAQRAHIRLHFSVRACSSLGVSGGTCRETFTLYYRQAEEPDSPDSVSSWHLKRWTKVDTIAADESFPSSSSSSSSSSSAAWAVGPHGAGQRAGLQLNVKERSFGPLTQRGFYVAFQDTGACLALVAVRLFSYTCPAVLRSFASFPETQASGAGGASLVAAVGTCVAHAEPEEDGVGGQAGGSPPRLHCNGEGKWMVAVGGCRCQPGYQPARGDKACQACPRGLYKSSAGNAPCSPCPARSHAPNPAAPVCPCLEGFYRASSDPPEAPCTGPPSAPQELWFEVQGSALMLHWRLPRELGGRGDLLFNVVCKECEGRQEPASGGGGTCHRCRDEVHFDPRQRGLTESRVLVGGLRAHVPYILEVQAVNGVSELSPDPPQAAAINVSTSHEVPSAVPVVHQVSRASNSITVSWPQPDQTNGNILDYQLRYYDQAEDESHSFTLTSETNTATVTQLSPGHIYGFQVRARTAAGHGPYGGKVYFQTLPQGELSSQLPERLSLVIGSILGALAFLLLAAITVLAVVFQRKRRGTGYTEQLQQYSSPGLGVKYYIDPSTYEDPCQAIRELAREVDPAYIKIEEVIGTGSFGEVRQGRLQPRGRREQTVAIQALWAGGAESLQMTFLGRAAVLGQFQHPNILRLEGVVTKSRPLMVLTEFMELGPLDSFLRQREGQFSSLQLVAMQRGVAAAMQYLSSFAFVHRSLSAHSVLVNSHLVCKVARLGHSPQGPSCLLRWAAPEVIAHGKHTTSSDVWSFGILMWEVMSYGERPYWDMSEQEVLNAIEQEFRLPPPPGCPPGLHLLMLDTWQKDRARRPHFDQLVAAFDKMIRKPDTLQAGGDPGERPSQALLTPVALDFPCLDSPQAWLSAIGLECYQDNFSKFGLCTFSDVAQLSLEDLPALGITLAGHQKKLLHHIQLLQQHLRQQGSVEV

In turn, `CNC(=O)c1cc(Oc2ccc(NC(=O)Nc3cc(C(C)(C)C)on3)cc2)ccn1` [MA68, reference compound] yielded a solubility in [1] of 45.8 µM (≈ 18.8 µg/mL). For the same molecule, the remaining activity at 1 µM in data set [2] was determined as 102%; in data set [3], 101%; in data set [5], 114%; in data set [6], 120%; in [7] it was 4%; in [8] it was 27.7%. The remaining activity at 1 µM in data set [9] is 3.8%; in [10], 99.5%; in data set [11], 119%; in data set [12] it was 120%; in [13], 111%; in data set [14] it was 108%. Besides, the remaining activity at 1 µM in [15] was determined as 24%. Moreover, in data set [4], the Tracer bound was found to be 41.1%.

On to `Cc1ncsc1-c1ccc([C@H](C)NC(=O)[C@@H]2C[C@@H](O)CN2C(=O)[C@@H](NC(=O)[C@H]2CC[C@H](C(=O)N3CCC(CCNC(=O)c4cc(Oc5ccc(NC(=O)Nc6cc(C(C)(C)C)on6)cc5)ccn4)CC3)CC2)C(C)(C)C)cc1` [MA190, 4-(4-(3-(5-(tert-Butyl)isoxazol-3-yl)ureido)phenoxy)-N-(2-(1-(trans-4-(((S)-1-((2S,4R)-4-hydroxy-2-(((S)-1-(4-(4-methylthiazol-5-yl)phenyl)ethyl)carbamoyl)pyrrolidin-1-yl)-3,3-dimethyl-1-oxobutan-2-yl)carbamoyl)cyclohexanecarbonyl)piperidin-4-yl)ethyl)picolinamide], for which the “induction of late apoptosis” value in data set [16] is reported as “most effective in inducing late apoptosis”.

In turn, `Cc1ncsc1-c1ccc([C@H](C)NC(=O)[C@@H]2C[C@@H](O)CN2C(=O)[C@@H](NC(=O)[C@H]2CC[C@H](C(=O)N3CCN(CCNC(=O)c4cc(Oc5ccc(NC(=O)Nc6cc(C(C)(C)C)on6)cc5)ccn4)CC3)CC2)C(C)(C)C)cc1` [MA191, 4-(4-(3-(5-(tert-Butyl)isoxazol-3-yl)ureido)phenoxy)-N-(2-(4-(trans-4-(((S)-1-((2S,4R)-4-hydroxy-2-(((S)-1-(4-(4-methylthiazol-5-yl)phenyl)ethyl)carbamoyl)pyrrolidin-1-yl)-3,3-dimethyl-1-oxobutan-2-yl)carbamoyl)cyclohexanecarbonyl)piperazin-1-yl)ethyl)picolinamide] gave a solubility in data set [1] of 47.7 µM (≈ 51.9 µg/mL). In data set [16], the “induction of late apoptosis” value is listed as “most effective in inducing late apoptosis”. Also, the remaining activity at 1 µM was determined as 85.4% in [2]; 91.6% in [3]; 120% in [5]; 120% in data set [6]; 85.7% in data set [7]; 85.1% in [8]. Also, the remaining activity at 1 µM amounted to 120% in [9]; 120% in data set [10]; 120% in [11]; 120% in data set [12]; 107% in data set [13]; 102% in data set [14]. In addition, the remaining activity at 1 µM in data set [15] was found to be 96.2%. The molecule further returned a Tracer bound in [4] of 120.0%.
